{
  "source": "paper PMC2797363",
  "about": "“Discovery of Novel Proteasome Inhibitors Using a High-Content Cell-Based Screening System” (PLoS ONE, 2009)",
  "biological_target": "T1, 26S proteasome (chymotryptic activity, LLVY-AMC; β5 subunit) (Oryctolagus cuniculus, UniProt G1T4Q9)",
  "T1 construct": "gene PSMB5; purified 26S proteasomes from rabbit muscle; with other subunits of the 26S proteasome",
  "T1 sequence (G1T4Q9 60-263)": "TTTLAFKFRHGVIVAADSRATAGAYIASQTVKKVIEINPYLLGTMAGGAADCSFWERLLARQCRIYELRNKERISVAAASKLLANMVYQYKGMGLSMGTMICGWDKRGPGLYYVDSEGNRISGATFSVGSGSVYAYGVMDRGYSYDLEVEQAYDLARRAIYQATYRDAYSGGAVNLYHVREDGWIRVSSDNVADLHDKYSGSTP",
  "test": "Suc-LLVY-AMC fluorogenic hydrolysis by purified 26S proteasome, 30 μM compound",
  "type": "biochemical",
  "data": [
    {"smiles": "Cn1c(=S)c2[nH]c(SCCN3C(=O)c4ccccc4C3=O)nc2n(C)c1=O", "note": "[NSC99671, 2-[2-[(1,3-dimethyl-2-oxo-6-sulfanylidene-7H-purin-8-yl)sulfanyl]ethyl]isoindole-1,3-dione]", "values": [
      {"measurement": "Suc-LLVY-AMC fluorogenic hydrolysis by purified 26S proteasome, 30 μM compound", "result": "NSC99671 displayed a moderate inhibitory effect"}
    ]}
  ]
}
